Results on 1 compound are retold here after article PMC11239005, “Preclinical studies of RA475, a guanidine-substituted spirocyclic candidate RPN13/ADRM1 inhibitor for treatment of ovarian cancer” (PLOS ONE, 2024).

This experiment addresses T1, RPN13 (Homo sapiens, UniProt Q16186).
T1 construct: performed the labeling assay after treating ovarian cancer cell lysates (ES2 and SKOV3) in the presence of titrated doses of RA475; endogenous in cells; host or cells: ES2 and SKOV3 ovarian cancer cell lysates
In words: Up284B competition labelling in ES2 and SKOV3 cell lysate. It is filed as binding. The following applies: titrated RA475, bortezomib 1 μM, Up284B 5 μM. The protocol:
Clarified cell lysate in MPER buffer (Pierce) was pretreated with streptavidin-coated magnetic beads for 45 min at 4°C to deplete non-specific biotinylated proteins in the cell lysate. […] Next, the samples were mixed with Laemmli sample buffer (BioRad) and boiled for 5 min. The proteins were separated using a 4–15% Bio-Rad Mini-PROTEAN SDS-PAGE gel (1 h at 100 V), and transferred to PVDF membrane overnight at 4°C (24 V). The membrane was blocked with 5% (w/v) BSA in phosphate buffered saline containing 0.1% (v/v) Tween 20 (PBST) for 1 h at RT, and washed for 20 min (3X with PBST). Then the membrane was probed with HRP-streptavidin (1:10,000 in PBST) for 1 h at RT, washed for 30 min (3X with PBST), and developed using HyGLO chemiluminescent detection reagent (Denville) and visualized using a Biorad Chemidoc imager.
Fig 2 RA475 binds to RPN13 and induces rapid apoptosis. […] C, D) RA475 competition labelling experiment. C) ES2 D) SKOV3 clarified cell lysate (40 μg/sample) in MPER buffer was pretreated with streptavidin-coated magnetic beads for 45 min at 4°C to deplete non-specific biotinylated proteins in the cell lysate. […] Next, the samples were mixed with Laemmli sample buffer (BioRad) and boiled for 5 min. The proteins were separated using a 4–15% Bio-Rad Mini-PROTEAN SDS-PAGE gel (1 h at 100 V), and transferred to PVDF membrane overnight at 4°C (24 V). […]

T1 sequence (Q16186 whole entry): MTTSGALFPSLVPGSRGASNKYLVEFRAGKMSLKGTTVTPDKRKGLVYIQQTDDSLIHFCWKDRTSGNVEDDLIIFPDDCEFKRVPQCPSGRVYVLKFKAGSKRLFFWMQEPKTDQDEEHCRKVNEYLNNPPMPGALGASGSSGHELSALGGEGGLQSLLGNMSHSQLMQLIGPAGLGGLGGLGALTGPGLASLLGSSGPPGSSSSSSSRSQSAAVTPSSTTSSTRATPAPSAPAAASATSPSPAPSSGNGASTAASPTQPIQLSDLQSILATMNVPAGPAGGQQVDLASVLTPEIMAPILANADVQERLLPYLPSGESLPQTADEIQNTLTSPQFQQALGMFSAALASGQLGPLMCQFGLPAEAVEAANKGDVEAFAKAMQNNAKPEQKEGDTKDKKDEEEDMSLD

`Cl.Cl.N#Cc1ccc(/C=C2/C(=O)/C(=C/c3ccc(C#N)cc3)C23CCN(C(=N)N)CC3)cc1` [RA475, 1,3-bis((E)-4-cyanobenzylidene)-2-oxo-7-azaspiro[3.5]nonane-7-carboximidamide dihydrochloride]: the “competition with Up284B for binding to RPN13” value is reported as “efficiently competes”.
